Experimental data as given in PubChem BioAssay (NCI).
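1) Cells in 96-well plates. 2) Compound, 48 h, 5 concentrations. 3) Linear interpolation between surrounding doses. 4) Unreached endpoint = highest concentration. At the GI50, growth is halved. TGI denotes the concentration required for complete inhibition of growth.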

What was measured:
Assay in all cases: inhibition of tumour cell growth, NCI panel, 48 h
MALME-3M melanoma = tested on: MALME-3M melanoma
SN12C renal = tested on: SN12C renal
OVCAR-5 ovarian = tested on: OVCAR-5 ovarian
U251 CNS = tested on: U251 CNS
EKVX NSCLC = tested on: EKVX NSCLC
SF-268 CNS = tested on: SF-268 CNS
HT29 colon = tested on: HT29 colon
MCF7 breast = tested on: MCF7 breast
HS 578T breast = tested on: HS 578T breast
DU-145 prostate = tested on: DU-145 prostate

SMILES	GI50 (MALME-3M melanoma)	TGI (MALME-3M melanoma)	GI50 (SN12C renal)	TGI (SN12C renal)	GI50 (OVCAR-5 ovarian)	TGI (OVCAR-5 ovarian)	TGI (U251 CNS)	TGI (EKVX NSCLC)	TGI (SF-268 CNS)	TGI (HT29 colon)	GI50 (HT29 colon)	GI50 (EKVX NSCLC)	TGI (MCF7 breast)	TGI (HS 578T breast)	GI50 (MCF7 breast)	GI50 (DU-145 prostate)	TGI (DU-145 prostate)	GI50 (U251 CNS)	GI50 (SF-268 CNS)	GI50 (HS 578T breast)
CC(C)(c1ccccc1)c1ccc(Oc2ccc(C#N)c(C#N)c2)cc1	> 100000 nM	> 100 µM	> 100 µM	> 100 µM	> 100 µM	> 100 µM	> 100 µM	> 100 µM	> 100 µM											
O=C(O)c1nc(-c2ccc(Cl)c(Cl)c2)nc2ccc(Cl)cc12		> 100 µM		> 100 µM		> 100 µM	> 100 µM	> 100 µM	> 100 µM	> 100 µM										
CC(=O)O[C@H]1CCC2[C@@H]3CCC4c5nonc5CC[C@]4(C)C3CC[C@@]21C (some centres undefined)	> 100000 nM	> 100 µM		> 10 µM	> 100 µM	> 100 µM	> 10 µM	> 100 µM	> 10 µM	> 100 µM	> 100 µM	> 100 µM								
CCOC(=O)/C(O)=C(/C(=O)OC)c1ccc(Cl)cc1		> 100 µM		> 100 µM		> 100 µM	> 100 µM	> 100 µM	> 100 µM	> 100 µM										
CN(C)C(=O)c1ccc([N+](=O)[O-])cc1		> 100 µM		> 100 µM		> 100 µM	> 100 µM	> 100 µM	> 100 µM	> 100 µM										
Oc1c(Cl)c(Cl)c(O)c2c1CCCC2		9.48 µM		30.2 µM			42.7 µM	21.4 µM	24.8 µM	44.6 µM			4.56 µM	49.2 µM						
CN(C)C(=O)c1cnc2oc3ccc(O)cc3c2c1-c1ccccc1					6.94 µM	> 25 µM	> 25 µM	> 25 µM	> 25 µM			> 25 µM	> 25 µM		> 25000 nM	> 25 µM	> 25 µM	> 25000 nM	20.2 µM	
CCC[CH2][Sn]1([CH2]CCC)[O]C2C(CO)OC(n3ccc(N)nc3=O)C2[O]1 (centres undefined)	701 nM	2.15 µM	1.45 µM	2.83 µM	1.57 µM	3.03 µM	2.87 µM		2.47 µM				1.42 µM	4.14 µM	300 nM	1.34 µM	2.61 µM	1520 nM	1.08 µM	1.29 µM
COc1ccccc1CNCCCN1C(=O)c2ccc3c4c(ccc(c24)C1=O)C(=O)N(CCCN)C3=O	360 nM	1.07 µM	1.29 µM	2.76 µM	1.6 µM	3.56 µM	3.99 µM		3.94 µM	3.75 µM	1.42 µM		1.6 µM	6.95 µM	329 nM	1.38 µM	2.71 µM	1770 nM	1.22 µM	1.96 µM
CNC(=O)OCc1c2ccncc2c(C)c2c1[nH]c1ccc(OC)cc12		1.87 µM		> 100 µM		0.808 µM	0.893 µM	> 100 µM	0.79 µM	> 100 µM										
COC(=O)c1cc2ccccc2c2c3c(ccc12)OCO3	76600 nM	483 µM	205 µM	> 1000 µM	223 µM	> 1000 µM	924 µM		371 µM	> 1000 µM	33.7 µM		> 1000 µM	247 µM	306000 nM	109 µM	> 1000 µM	79200 nM	50.6 µM	36.4 µM
C[CH2][Sn]([CH2]C)([O]C(=O)c1ccccc1F)[O][Sn]([CH2]C)([CH2]C)[O]C(=O)c1ccccc1F	14900 nM	30.4 µM	27 µM	> 57.4 µM	> 49.3 µM	> 71.4 µM	31.6 µM	> 100 µM	50.7 µM	> 72.7 µM	39.8 µM	33.9 µM						17100 nM	23.2 µM	
Cc1[nH]c2ccc(F)cc2c1-c1nc2c3cccnc3c3ncccc3c2[nH]1	283 nM	> 100 µM	0.403 µM	> 100 µM	0.397 µM	> 100 µM	> 100 µM	> 100 µM	> 100 µM	> 100 µM	0.479 µM	0.278 µM	> 100 µM		361 nM	0.308 µM	> 100 µM	244 nM	0.205 µM	
c1ccc2[nH]c(-c3cc(-c4ccc5c(c4)OCO5)n[nH]3)nc2c1	2330 nM	13.2 µM	3.73 µM	21.3 µM	14.9 µM	34.3 µM	14.4 µM		22.4 µM	15 µM	3.66 µM		18.3 µM	52.3 µM	3780 nM	7.27 µM	22 µM	2370 nM	4.77 µM	3.8 µM
O=S(=O)(/C=C/CS(=O)(=O)c1ccccc1)c1ccccc1		> 100 µM		88 µM		> 100 µM	77.5 µM	> 100 µM	> 100 µM	> 100 µM										
COC(=O)C(CC1=C(O)Nc2ccccc2N1)/C(=N/NC(N)=O)C(=O)Nc1ccccc1C (centres undefined)		> 100 µM		> 100 µM		> 100 µM	> 100 µM	> 100 µM	45.2 µM	> 100 µM										
Nc1c(C(=O)c2cccc(-c3cccnc3)c2)cnn1-c1ccc(F)cc1F	2260 nM	> 20.9 µM	7.53 µM	> 25 µM	> 19.6 µM	> 25 µM	> 25 µM		> 25 µM	> 25 µM	1.05 µM		> 25 µM	> 25 µM	1590 nM	12 µM	> 25 µM	6790 nM	10.8 µM	7.44 µM
CCN(CC)c1oc(N(CC)CC)c(C(=O)Nc2ccccn2)c(=O)c1C(C)=O		> 100 µM		> 100 µM		> 100 µM	> 100 µM	> 100 µM	> 100 µM	> 100 µM										
